Experimental findings from publication PMC5107132 (European journal of pharmacology, 2016) are described below.

This assay concerns Wistar rats. Briefly: Spontaneous locomotor activity. The note with it: 15 mg/kg i.p., 45 min. It counts as in vivo, rat.

Molecules are shown by their SMILES.

Take `C#Cc1ccc2c(c1)C(c1ccccc1F)=N[C@H](C)c1c(C(=O)NC)ncn1-2` [MP-III-022, (R)-8-Ethynyl-6-(2-fluorophenyl)-N,4-dimethyl-4H-benzo[f]imidazo[1,5-a][1,4]diazepine-3-carboxamide]: the “Spontaneous locomotor activity, total distance traveled” value is given as “slight hyperlocomotion”.
